Structures can show the parent of a compound that is named as a salt. Where two headings read alike, the source gives them in different places.
Columns and labels:
Format in all cases: cell-based
[1] = tested on: Her2 exon 20 insertion YVMA transduced NIH-3T3 cell line; assay: Cell proliferation, Her2 YVMAins NIH-3T3 (CellTiter-Glo, 72 h); conditions: Mus musculus, NIH3T3, 72 h, Her2 YVMAins cells, 72 h proliferation; read-out: Her2 Exon 20 YVMA insertion GI50;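 also: viable cells quantified by ATP luminescence, growth over a day-zero baseline plate expressed as percent of DMSO control growth, compound dilution series in 10% FBS medium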
[2] = molecular target: T1, human EGFR exon 20 H773_V774insNPH (Homo sapiens, UniProt P00533, INS773NPH); assay: EGFR Exon20 NPH insertion cellular phosphorylation inhibition (MSD pEGFR Y1068/total EGFR); conditions: Ba/F3 EGFR NPH ins cells, 4 h compound, p-EGFR(Y1068)/total EGFR;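 also: IL3-independent Ba/F3 cells with constitutively phosphorylated EGFR, compound exposure at 37 °C under 5% CO2, electrochemiluminescent MSD measurement of the p-EGFR to total EGFR ratio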
T1 construct: host or cells: Ba/F3

[3] = molecular target: T2, human EGFR exon 20 V769_D770insASV (Homo sapiens, UniProt P00533, INS769ASV); assay: EGFR Exon20 ASV insertion cellular phosphorylation inhibition (MSD pEGFR Y1068/total EGFR); conditions: Ba/F3 EGFR ASV ins cells, 4 h compound, p-EGFR(Y1068)/total EGFR;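 also: electrochemiluminescent readout on an MSD SECTOR Imager, IL3-independent transduced cells in medium with 1% FBS, compound concentration series at 37 °C and 5% CO2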
T2 construct: expressed in transfected cells; host or cells: Ba/F3 (DSMZ ACC-300), lentiviral transduction, puromycin selection, IL3 depletion
T2 sequence (P00533 with tags, fused parts or gaps INS769ASV): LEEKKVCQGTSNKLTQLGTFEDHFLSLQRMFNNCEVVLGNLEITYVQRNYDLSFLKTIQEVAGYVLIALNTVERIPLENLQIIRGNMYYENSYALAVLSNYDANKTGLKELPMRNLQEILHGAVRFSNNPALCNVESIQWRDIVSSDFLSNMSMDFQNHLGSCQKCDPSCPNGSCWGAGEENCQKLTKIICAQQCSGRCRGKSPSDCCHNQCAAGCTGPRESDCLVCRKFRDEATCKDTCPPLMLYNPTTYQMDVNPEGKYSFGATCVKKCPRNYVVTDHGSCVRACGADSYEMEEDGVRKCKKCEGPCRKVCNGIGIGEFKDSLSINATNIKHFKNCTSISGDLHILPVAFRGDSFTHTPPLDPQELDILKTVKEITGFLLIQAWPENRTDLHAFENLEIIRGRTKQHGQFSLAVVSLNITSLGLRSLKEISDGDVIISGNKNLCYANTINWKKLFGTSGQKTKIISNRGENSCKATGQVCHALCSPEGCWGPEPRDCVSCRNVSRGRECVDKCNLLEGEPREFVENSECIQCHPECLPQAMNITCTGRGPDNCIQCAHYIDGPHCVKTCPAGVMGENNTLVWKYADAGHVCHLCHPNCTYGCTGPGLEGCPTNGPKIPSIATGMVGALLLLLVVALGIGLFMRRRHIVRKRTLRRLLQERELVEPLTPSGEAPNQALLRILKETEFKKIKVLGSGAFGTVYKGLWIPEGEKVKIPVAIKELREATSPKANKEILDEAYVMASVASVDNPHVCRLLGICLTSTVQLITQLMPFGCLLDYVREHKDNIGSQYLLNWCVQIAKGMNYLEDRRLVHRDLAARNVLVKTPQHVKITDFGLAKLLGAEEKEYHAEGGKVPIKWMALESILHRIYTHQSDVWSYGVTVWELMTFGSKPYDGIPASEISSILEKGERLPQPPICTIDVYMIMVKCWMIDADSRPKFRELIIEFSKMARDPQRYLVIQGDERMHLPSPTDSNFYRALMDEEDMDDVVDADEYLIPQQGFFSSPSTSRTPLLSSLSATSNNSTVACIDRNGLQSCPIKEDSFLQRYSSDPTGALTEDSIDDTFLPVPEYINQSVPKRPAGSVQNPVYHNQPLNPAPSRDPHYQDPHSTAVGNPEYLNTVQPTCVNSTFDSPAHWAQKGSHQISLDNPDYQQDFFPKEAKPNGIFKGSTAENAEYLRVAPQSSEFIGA

Ba/F3 EGFR NPH ins cells = assay: Cell proliferation, Ba/F3 EGFR NPH ins (CellTiter-Glo, 72 h); conditions: Ba/F3 EGFR, 72 h;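 also: IL3-independent cells carrying constitutively phosphorylated EGFR, compound dilution series, viable cells quantified by ATP luminescence, growth relative to DMSO wells after subtracting pre-dosing (day 0) baseline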
[4] = molecular target: T3, human Her2 exon 20 insertion mutation YVMA (Homo sapiens, UniProt P04626, INS775YVMA); assay: Her2 Exon 20 YVMA insertion cellular phosphorylation inhibition (MSD p-Her2 Y1248/total Her2); conditions: Her2 YVMAins cells, 4 h compound;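 also: lentivirally transduced NIH-3T3 cells in 1% FBS medium, electrochemiluminescent MSD read-out, graded compound concentrations at 37 °C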
T3 construct: expressed in transfected cells; host or cells: NIH-3T3, lentiviral transduction, puromycin selection
T3 sequence (P04626 with tags, fused parts or gaps INS775YVMA): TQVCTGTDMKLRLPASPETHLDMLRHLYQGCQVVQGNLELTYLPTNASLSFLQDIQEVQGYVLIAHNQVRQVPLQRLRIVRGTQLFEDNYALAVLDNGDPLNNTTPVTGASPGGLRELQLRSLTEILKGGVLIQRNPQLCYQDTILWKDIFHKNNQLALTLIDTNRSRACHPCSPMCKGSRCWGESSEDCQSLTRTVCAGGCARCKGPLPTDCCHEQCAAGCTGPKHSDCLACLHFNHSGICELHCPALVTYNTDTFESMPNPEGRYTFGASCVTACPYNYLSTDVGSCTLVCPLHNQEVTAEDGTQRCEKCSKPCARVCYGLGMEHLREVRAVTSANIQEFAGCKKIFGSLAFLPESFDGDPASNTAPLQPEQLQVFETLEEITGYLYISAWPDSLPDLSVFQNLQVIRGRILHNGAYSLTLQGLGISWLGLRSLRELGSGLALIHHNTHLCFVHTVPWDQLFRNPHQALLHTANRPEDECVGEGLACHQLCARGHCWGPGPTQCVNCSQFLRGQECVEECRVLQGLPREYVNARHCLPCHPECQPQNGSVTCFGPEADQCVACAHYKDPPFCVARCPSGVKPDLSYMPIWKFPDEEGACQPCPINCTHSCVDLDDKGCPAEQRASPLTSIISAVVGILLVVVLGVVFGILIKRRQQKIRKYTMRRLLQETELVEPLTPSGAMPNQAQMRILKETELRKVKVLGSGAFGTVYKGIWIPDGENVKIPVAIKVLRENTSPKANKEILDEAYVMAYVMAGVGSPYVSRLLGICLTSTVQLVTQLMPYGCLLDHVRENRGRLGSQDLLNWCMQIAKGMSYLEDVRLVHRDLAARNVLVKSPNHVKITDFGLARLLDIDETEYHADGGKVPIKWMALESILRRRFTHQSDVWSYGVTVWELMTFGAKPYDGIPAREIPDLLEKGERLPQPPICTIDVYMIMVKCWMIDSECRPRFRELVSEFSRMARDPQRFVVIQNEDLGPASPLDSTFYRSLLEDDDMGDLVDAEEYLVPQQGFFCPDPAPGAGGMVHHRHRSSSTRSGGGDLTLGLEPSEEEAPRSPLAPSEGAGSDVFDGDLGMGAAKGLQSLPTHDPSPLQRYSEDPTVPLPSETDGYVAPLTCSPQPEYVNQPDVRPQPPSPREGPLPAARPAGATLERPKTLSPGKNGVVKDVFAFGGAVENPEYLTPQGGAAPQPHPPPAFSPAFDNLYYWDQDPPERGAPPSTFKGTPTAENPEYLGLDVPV
Description: The resulting cell line expressed phosphorylated Her2 protein and its proliferation depended on the mutation gene, which could be used for in vitro PD and anti-proliferation assays.
(§1) One day before the test, WT or mutant cells were seeded in 96 well plates at appropriate concentrations with corresponding growth media supplemented with 1% FBS, and incubated overnight. The next day, tested compounds at a series of concentrations were added into each individual well of the plates, and the plates were incubated for 4 h at 37° C. with 5% CO2.
(§2) The EGFR (Y1068) phosphorylation level (activity) of cells in each well were then measured with MSD kit named “MULTI-SPOT®96 4-Spot HB Prototype EGFR Triplex [sequence]: pEGFR(Tyr1068),pEGFR(Tyr1173), Total EGFR” according to the manufacturer’s instruction (MESO SCALE DISCOVERY, Cat# N45ZB-1). The assay is an electrochemiluminescent method for determining both phosphorylated and total EGFR of cells with an MSD SECTOR® Imager and the ratio of p-EGFR/total EGFR can be generated by the machine. The Her2 (Y1248) phosphorylation level (activity) of cells in each well were measured with MSD Kit named “Phospho-ErbB2 (Tyr1248) Assay Whole Cell Lysate Kit” according to the manufacturer’s instruction (MESO SCALE DISCOVERY, Cat# K151CLD-3). The assay is an electrochemiluminescent method (MESO SCALE DISCOVERY) for determining both phosphorylated and total Her2 of cells with an MSD SECTOR® Imager and then the ratio of p-Her2/total Her2 can be generated by the machine.

WT EGFR cell line A-431 = assay: Cell proliferation, WT EGFR A431 (CellTiter-Glo, 72 h); conditions: Homo sapiens, A-431, 72 h;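 also: proliferation from a luminescent ATP viability signal, expressed as 100 × (treated minus time-zero plate) over (DMSO control minus time-zero plate), cells grown with 10% FBS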
WT EGFR = molecular target: T4, WT EGFR (Homo sapiens, UniProt P00533); assay: WT EGFR cellular phosphorylation inhibition in A-431 (hEGF stimulated, MSD); conditions: A431 cells, 4 h compound, then 100 ng/ml hEGF 10 min;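 also: electrochemiluminescence read-out of EGFR Tyr1068 phosphorylation expressed as ratio to total EGFR, cells kept in medium with 1% FBS, compounds tested as a concentration series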
T4 construct: host or cells: A-431
T4 sequence (P00533 25-1210): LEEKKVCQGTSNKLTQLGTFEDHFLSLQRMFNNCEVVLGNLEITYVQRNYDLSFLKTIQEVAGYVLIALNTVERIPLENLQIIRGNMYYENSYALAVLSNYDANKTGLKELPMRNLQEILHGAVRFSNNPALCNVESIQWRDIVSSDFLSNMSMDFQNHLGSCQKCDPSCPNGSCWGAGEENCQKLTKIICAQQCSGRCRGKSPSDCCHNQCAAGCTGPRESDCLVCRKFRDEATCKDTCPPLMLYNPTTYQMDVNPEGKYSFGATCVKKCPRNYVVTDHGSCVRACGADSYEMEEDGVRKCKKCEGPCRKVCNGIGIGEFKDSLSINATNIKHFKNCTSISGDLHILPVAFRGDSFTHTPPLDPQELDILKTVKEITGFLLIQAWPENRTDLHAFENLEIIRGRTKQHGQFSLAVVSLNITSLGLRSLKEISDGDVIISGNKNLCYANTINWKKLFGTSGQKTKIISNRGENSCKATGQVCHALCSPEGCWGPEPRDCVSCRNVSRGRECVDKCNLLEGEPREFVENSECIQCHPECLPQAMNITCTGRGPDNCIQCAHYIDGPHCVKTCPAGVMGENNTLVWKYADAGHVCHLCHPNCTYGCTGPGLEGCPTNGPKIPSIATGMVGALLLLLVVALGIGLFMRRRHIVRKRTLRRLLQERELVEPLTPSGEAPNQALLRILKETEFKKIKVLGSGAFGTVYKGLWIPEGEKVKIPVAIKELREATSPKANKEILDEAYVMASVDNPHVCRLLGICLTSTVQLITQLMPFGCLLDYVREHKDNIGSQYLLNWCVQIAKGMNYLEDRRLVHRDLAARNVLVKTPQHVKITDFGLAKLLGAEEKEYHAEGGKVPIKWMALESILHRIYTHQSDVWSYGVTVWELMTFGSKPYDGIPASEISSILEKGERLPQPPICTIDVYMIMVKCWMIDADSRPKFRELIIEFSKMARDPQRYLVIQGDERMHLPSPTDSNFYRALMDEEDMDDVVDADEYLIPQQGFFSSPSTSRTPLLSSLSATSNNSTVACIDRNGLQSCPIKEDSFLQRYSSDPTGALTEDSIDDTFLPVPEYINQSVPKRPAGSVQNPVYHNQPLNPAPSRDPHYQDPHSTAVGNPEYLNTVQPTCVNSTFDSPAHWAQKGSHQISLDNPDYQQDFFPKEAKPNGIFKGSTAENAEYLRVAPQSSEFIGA

[5] = tested on: NCI-H1975 EGFR L858R/T790M cells; assay: Cell proliferation, NCI-H1975 EGFR L858R/T790M (CellTiter-Glo, 72 h); conditions: Homo sapiens, NCI-H1975, 72 h;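 also: viable cells quantified by luciferase-based ATP luminescence, proliferation expressed relative to DMSO-treated wells (100%) after subtracting a parallel plate read at the time of dosing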
EGFR L858R&T790M = molecular target: T5, EGFR L858R&T790M (Homo sapiens, UniProt P00533, L858R/T790M); assay: EGFR L858R and T790M cellular phosphorylation inhibition in NCI-H1975 (MSD); conditions: NCI-H1975 cells, 4 h compound, p-EGFR(Y1068)/total EGFR; read-out: EGFR L858R and T790M mutation IC50;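 also: phosphorylated and total EGFR detected by electrochemiluminescence, cells exposed to compound in medium containing 1% FBS at 37 °C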
T5 construct: host or cells: NCI-H1975
T5 sequence (P00533 25-1210 T790M/L858R): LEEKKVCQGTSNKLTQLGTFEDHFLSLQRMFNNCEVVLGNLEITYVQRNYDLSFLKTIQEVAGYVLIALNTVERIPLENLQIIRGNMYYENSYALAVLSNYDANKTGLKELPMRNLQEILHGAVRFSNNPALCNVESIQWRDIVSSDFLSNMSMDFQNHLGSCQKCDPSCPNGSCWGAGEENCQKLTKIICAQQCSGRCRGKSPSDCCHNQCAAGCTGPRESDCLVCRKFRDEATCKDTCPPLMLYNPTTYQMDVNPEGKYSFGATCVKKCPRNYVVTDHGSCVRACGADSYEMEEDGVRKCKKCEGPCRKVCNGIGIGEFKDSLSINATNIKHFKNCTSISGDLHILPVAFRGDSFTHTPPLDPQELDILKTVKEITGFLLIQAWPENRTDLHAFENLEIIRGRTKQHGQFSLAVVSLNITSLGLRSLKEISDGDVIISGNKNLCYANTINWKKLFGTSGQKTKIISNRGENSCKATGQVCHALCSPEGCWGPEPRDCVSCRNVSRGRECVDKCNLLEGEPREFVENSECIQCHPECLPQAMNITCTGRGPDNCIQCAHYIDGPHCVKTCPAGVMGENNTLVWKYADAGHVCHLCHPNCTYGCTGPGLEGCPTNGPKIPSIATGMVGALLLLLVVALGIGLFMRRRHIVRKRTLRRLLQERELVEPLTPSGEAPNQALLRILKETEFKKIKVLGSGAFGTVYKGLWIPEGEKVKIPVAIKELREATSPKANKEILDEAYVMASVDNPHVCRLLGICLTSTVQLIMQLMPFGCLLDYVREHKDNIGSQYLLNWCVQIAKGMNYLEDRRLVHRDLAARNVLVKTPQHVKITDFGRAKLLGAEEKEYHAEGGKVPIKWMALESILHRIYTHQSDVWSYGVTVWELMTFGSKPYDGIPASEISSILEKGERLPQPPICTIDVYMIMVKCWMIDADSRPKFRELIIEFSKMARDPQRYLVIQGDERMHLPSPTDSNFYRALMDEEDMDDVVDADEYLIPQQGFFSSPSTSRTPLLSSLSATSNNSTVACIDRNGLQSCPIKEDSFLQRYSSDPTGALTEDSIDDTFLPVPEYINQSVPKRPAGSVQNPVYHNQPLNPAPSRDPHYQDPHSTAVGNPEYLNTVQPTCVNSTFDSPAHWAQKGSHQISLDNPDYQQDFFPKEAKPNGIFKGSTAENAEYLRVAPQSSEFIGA
Description: as §1, §2

Ba/F3 EGFR ASV ins cells = assay: Cell proliferation, Ba/F3 EGFR ASV ins (CellTiter-Glo, 72 h); conditions: Ba/F3 EGFR, 72 h;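 also: IL3-independent Ba/F3 cells transduced with EGFR V769_D770insASV, cellular ATP luminescence after compound exposure, growth relative to DMSO control with the day-0 baseline reading subtracted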
OCI-LY-10 cells = assay: BTK (wt) cell proliferation, OCI-LY-10 (CellTiter-Glo, 72 h); conditions: Homo sapiens, OCI-Ly10, 72 h, OCI-LY-10 cells, 72 h, CellTiter-Glo; read-out: BTK WT OCI-LY-10 GI50;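 also: viable cells quantified via cellular ATP luminescence, proliferation given as percent of DMSO control after subtracting a duplicate plate read at time of dosing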
Ri-1 cells = assay: BTK (wt) cell proliferation, Ri-1 (CellTiter-Glo, 72 h); conditions: Ri-1, 72 h, Ri-1 cells, 72 h, CellTiter-Glo; read-out: BTK WT Ri-1 GI50;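 also: viable cells quantified as cellular ATP luminescence, proliferation normalized to a time-zero plate and the DMSO control, compounds tested across a dilution series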
TMD-8 cells = assay: BTK (wt) cell proliferation, TMD-8 (CellTiter-Glo, 72 h); conditions: Homo sapiens, TMD8, 72 h, TMD-8 cells, 72 h, CellTiter-Glo; read-out: BTK WT TMD-8 GI50;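 also: viable cells quantified by ATP-based luminescence, proliferation expressed as percent of DMSO control after subtracting a time-zero baseline plate read at dosing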
DB cells = assay: BTK (wt) cell proliferation, DB (CellTiter-Glo, 72 h); conditions: Homo sapiens, DB, DB cells, CellTiter-Glo, read-out: Non-BCR activated DB GI50;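 also: DB cells in 384-well plates given a dilution series of compound, viable cells read by ATP luminescence, growth expressed versus DMSO control after subtracting a time-zero plate reading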
[6] = Ba/F3 EGFR NPH ins, 72 h proliferation, read-out: EGFR Exon20 NPH insertion GI50
[7] = A431, 72 h proliferation, read-out: EGFR WT A431 GI50
[8] = NCI-H1975, 72 h proliferation, read-out: EGFR L858R and T790M mutation GI50
[9] = Ba/F3 EGFR ASV ins, 72 h proliferation, read-out: EGFR Exon20 ASV insertion GI50

| Compound | IC50 [2] | IC50 [3] | GI50 (Ba/F3 EGFR NPH ins cells; [6]) | IC50 [4] | GI50 (WT EGFR cell line A-431; [7]) | IC50 (WT EGFR) | GI50 [5, 8] | IC50 (EGFR L858R&T790M) | GI50 (Ba/F3 EGFR ASV ins cells; [9]) | GI50 (OCI-LY-10 cells) | GI50 [1] | GI50 (Ri-1 cells) | GI50 (TMD-8 cells) | GI50 (DB cells) | GI50 (Ba/F3 EGFR NPH ins cells; read-out: EGFR Exon20 NPH insertion GI50 (nM)) | GI50 (WT EGFR cell line A-431; read-out: EGFR WT A431 GI50 (nM)) | GI50 ([5]; read-out: EGFR L858R and T790M mutation GI50 (nM)) | GI50 (Ba/F3 EGFR ASV ins cells; read-out: EGFR Exon20 ASV insertion GI50 (nM)) |
| --- | --- | --- | --- | --- | --- | --- | --- | --- | --- | --- | --- | --- | --- | --- | --- | --- | --- | --- |
| C=CC(=O)Nc1cc(Nc2ncnc(Nc3ccccc3C(C)(C)O)n2)c(OC)cc1N1CCC[C@@H](N(C)C)C1 [Compound 1, (R)-N-(2-(3-(dimethylamino)piperidin-1-yl)-5-(4-(2-(2-hydroxypropan-2-yl)phenylamino)-1,3,5-triazin-2-ylamino)-4-methoxyphenyl)acrylamide] | 423 nM | 386 nM | 999 nM | 318 nM | 334 nM | 599 nM | 282 nM | 5.2 nM | 926 nM |  | 905 nM |  |  |  |  |  |  |  |
| C=CC(=O)Nc1cc(Nc2ncnc(Nc3cnc(F)cc3C(C)(C)O)n2)c(OC)cc1N(C)CCN(C)C [Compound 3, N-(2-((2-(dimethylamino)ethyl)(methyl)amino)-5-(4-(6-fluoro-4-(2-hydroxypropan-2-yl)pyridin-3-ylamino)-1,3,5-triazin-2-ylamino)-4-methoxyphenyl) acrylamide] | 296 nM | 92.4 nM | 307 nM | 51.2 nM | 69.3 nM | 103 nM | 55.6 nM | 3.1 nM | 252 nM | 2510 nM | 183 nM | > 3000 nM | 635 nM | > 3000 nM |  |  |  |  |
| COc1cc(N(C)CCN(C)C)c(NC(=O)/C=C/CN(C)C)cc1Nc1ncnc(Nc2cc(F)c(F)cc2C(C)(C)O)n1 [Compound 5, (E)-N-(5-(4-(4,5-difluoro-2-(2-hydroxypropan-2-yl)phenylamino)-1,3,5-triazin-2-ylamino)-2-((2-(dimethylamino)ethyl)(methyl)amino)-4-methoxypheny 1)-4-(dimethylamino)but-2-enamide] | 271 nM | 170 nM | 461 nM | 36.2 nM | 117 nM | 90.3 nM | 114 nM | 6.3 nM | 234 nM |  | 68.9 nM |  |  |  |  |  |  |  |
| C=CC(=O)Nc1cc(Nc2ncnc(Nc3cc(F)c(F)cc3C(C)(C)O)n2)c(OC)cc1N1CC[C@H]2CN(C)C[C@H]21 [Compound 25, N-(5-(4-(4,5-difluoro-2-(2-hydroxypropan-2-yl)phenylamino)-1,3,5-triazin-2-ylamino)-4-methoxy-2-((3aS,6aS)-5-methylhexahydropyrrolo[3,4-b]pyrrol-1(2H)-yl)phenyl) acrylamide] | 376 nM | 388 nM | 618 nM | 534 nM | 329 nM | 838 nM | 165 nM | 7.9 nM | 552 nM |  | 989 nM |  |  |  |  |  |  |  |
| C=CC(=O)Nc1cc(Nc2nccc(Nc3cc(Cl)c(F)cc3C(C)(C)O)n2)c(OC)cc1N1C[C@H](N(C)C)C2(CC2)C1 [Compound 83, (R)-N-(5-(4-(5-chloro-4-fluoro-2-(2-hydroxypropan-2-yl)phenylamino)pyrimidin-2-ylamino)-2-(7-(dimethylamino)-5-azaspiro[2.4]heptan-5-yl)-4-methoxyphenyl) acrylamide formic acid salt] | 239 nM | 154 nM |  | 87.6 nM |  | 1010 nM |  | 5 nM |  |  | 678 nM |  |  |  | 300 nM | 252 nM | 38.9 nM | 340 nM |

Further molecules by falling IC50 [2], results first:

| IC50 [2] | IC50 [3] | GI50 (Ba/F3 EGFR NPH ins cells; [6]) | IC50 [4] | GI50 (WT EGFR cell line A-431; [7]) | IC50 (WT EGFR) | GI50 [5, 8] | IC50 (EGFR L858R&T790M) | GI50 (Ba/F3 EGFR ASV ins cells; [9]) | GI50 (OCI-LY-10 cells) | Compound | GI50 [1] | GI50 (Ri-1 cells) | GI50 (TMD-8 cells) | GI50 (DB cells) | GI50 (Ba/F3 EGFR NPH ins cells; read-out: EGFR Exon20 NPH insertion GI50 (nM)) | GI50 (WT EGFR cell line A-431; read-out: EGFR WT A431 GI50 (nM)) | GI50 ([5]; read-out: EGFR L858R and T790M mutation GI50 (nM)) | GI50 (Ba/F3 EGFR ASV ins cells; read-out: EGFR Exon20 ASV insertion GI50 (nM)) |
| --- | --- | --- | --- | --- | --- | --- | --- | --- | --- | --- | --- | --- | --- | --- | --- | --- | --- | --- |
| 2630 nM | 308 nM | 802 nM | 382 nM | 277 nM | 1110 nM | 30 nM | 19 nM | 449 nM |  | C=CC(=O)Nc1cc(Nc2ncnc(Nc3cc(F)c(F)cc3C(C)(O)CC)n2)c(OC)cc1N1CC[C@H]2CN(C)C[C@H]21 (some centres unmarked) [Compound 50, N-(5-(4-(4,5-difluoro-2-(2-hydroxybutan-2-yl)phenylamino)-1,3,5-triazin-2-ylamino)-4-methoxy-2-((3 aS, 6aS)-5-methylhexahydropyrrolo[3,4-b]pyrrol-1 (2H)-yl)phenyl) acrylamide] | 1080 nM |  |  |  |  |  |  |  |
| 315 nM | 358 nM | 382 nM | 188 nM | 234 nM | 479 nM | 29.6 nM | 7.9 nM | 484 nM |  | C=CC(=O)Nc1cc(Nc2ncnc(Nc3cc(Cl)c(F)cc3C(C)(C)O)n2)c(OC)cc1N1CCC[C@H]1CN(C)C [Compound 65, (S)-N-(5-(4-(5-chloro-4-fluoro-2-(2-hydroxypropan-2-yl)phenylamino)-1,3,5-triazin-2-ylamino)-2-(2-((dimethylamino)methyl)pyrrolidin-1-yl)-4-methoxyphenyl)acrylamide] | 776 nM |  |  |  |  |  |  |  |
| 267 nM | 240 nM | 359 nM | 143 nM | 220 nM | 555 nM | 24.2 nM | 7.1 nM | 395 nM |  | C=CC(=O)Nc1cc(Nc2ncnc(Nc3cc(Cl)c(F)cc3C(C)(O)CC)n2)c(OC)cc1N1CCC[C@H]1CN(C)C (stereo partly drawn) [Compound 64, N-(5-(4-(5-chloro-4-fluoro-2-(2-hydroxybutan-2-yl)phenylamino)-1,3,5-triazin-2-ylamino)-2-((S)-2-((dimethylamino)methyl)pyrrolidin-1-yl)-4-methoxyphenyl)acrylamide] | 640 nM |  |  |  |  |  |  |  |
| 35.8 nM | 63.3 nM | 137 nM | 33.9 nM | 53.2 nM | 133 nM | 8.5 nM | 1.8 nM | 144 nM |  | C=CC(=O)Nc1cc(Nc2ncnc(Nc3cc(Cl)c(F)cc3C(C)(C)O)n2)c(OC)cc1N(C)CCN1CCC[C@@H]1C [Compound 42, (S)-N-(5-(4-(5-chloro-4-fluoro-2-(2-hydroxypropan-2-yl)phenylamino)-1,3,5-triazin-2-ylamino)-4-methoxy-2-(methyl(2-(2-methylpyrrolidin-1-yl)ethyl)amino)phenyl) acrylamide] | 195 nM |  |  |  |  |  |  |  |
| 19.7 nM | 13.4 nM | 56 nM | 4.6 nM | 26.6 nM | 21.3 nM | 13.9 nM | 0.5 nM | 42.2 nM | 134 nM | C=CC(=O)Nc1cc(Nc2ncnc(Nc3ccccc3C3(O)CC3)n2)c(OC)cc1N(C)CCN(C)C [Compound 2, N-(2-((2-(dimethylamino)ethyl)(methyl)amino)-5-(4-(2-(1-hydroxycyclopropyl)phenylamino)-1,3,5-triazin-2-ylamino)-4-methoxyphenyl)acrylamide] | 45.2 nM | 86.6 nM | 130 nM | > 3000 nM |  |  |  |  |
| 8.2 nM | 6.1 nM | 32.2 nM | 5.5 nM | 15.7 nM | 11.1 nM | 6.9 nM | 0.4 nM | 20.7 nM | 8.9 nM | C=CC(=O)Nc1cc(Nc2ncnc(Nc3cc(F)c(F)cc3C(C)(C)O)n2)c(OC)cc1N(C)CCN(C)C [Compound 4, N-(5-(4-(4,5-difluoro-2-(2-hydroxypropan-2-yl)phenylamino)-1,3,5-triazin-2-ylamino)-2-((2-(dimethylamino)ethyl)(methyl)amino)-4-methoxyphenyl)ac rylamide] | 31 nM | 61.4 nM | 77.1 nM | > 3000 nM |  |  |  |  |

Reference: patent US20230293535A1, “ERBB/BTK INHIBITORS” (Dizal (Jiangsu) Pharmaceutical Co., Ltd., priority 2018, published 2023)
